Data set [1] deals with RAW 264.7. Nature of the data set: Cytotoxicity, Alamar blue. The class given is cell-based, murine. The settings on record: 24 h incubation, read-out: IC50 RAW 264.7 (50% inhibition of cells respiration). How it is done:
Cell lines used in this study included murine RAW 264.7 macrophages and human embryonic kidney HEK-293FT cells (ATCC, Biological Industries, Beit Haemek, Israel). Cells were grown in Dulbecco’s modified eagle medium (DMEM) containing […] glucose, L-glutamine, sodium bicarbonate and sodium pyruvate, supplemented with 10% fetal bovine serum and pen-strep, at 37 °C and 5% CO2.
Lipopeptides cytotoxicity was determined using fluorescent measurements of reduced resazurin. 2 × 10^4 cells were first cultured in 96-well plates over-night (final volume of 100 µl) at 37 °C and 5% CO2. Then, the medium was removed and cells were incubated for an additional 24 h with serial twofold dilutions of the lipopeptides in growth medium. Then, 10 µl of Alamar blue were added and plates were incubated for 3 h, after which fluorescence (excitation: 530 nm; emission: 590 nm) of the reduced resazurin was recorded (BioTek Instruments Synergy HT; Winooski, VT, USA).

For data set [2], the system named is E. coli 25922. Nature of the data set: Growth / time-kill kinetics. The following applies: 10 µM C10BBc12B, 1 µg/ml erythromycin or 20 ng/ml rifampin alone. The data set is classed as cell-based, Escherichia coli. How it is done:
Antimicrobials mode of action was determined according to the rate of bacterial killing. Varying concentrations of lipopeptides, antibiotics and combinations thereof were mixed in LB medium with 5 × 10^5 CFU/ml of bacteria (final volume of 1 ml) and incubated at 37 °C with shaking. At the designated time-points aliquots were serially tenfold diluted in saline, plated on LB agar, and incubated over-night at 37 °C for enumeration.

The test system of data set [3] is P. aeruginosa. The data set can be described thus: MIC, broth microdilution. The data set is classed as cell-based, Pseudomonas aeruginosa. The following applies: broth microdilution in LB, 18–24 h, 37 °C; n = 3 strains. The text has this:
Bacteria used in this study consisted of standard American Type Culture Collection (ATCC; Biological Industries, Beit Haemek, Israel) strains, clinically isolated (CI; Sourasky Medical Center, Tel Aviv, Israel) strains, as well as isogenic mutant strains. Gram-negative bacteria included Acinetobacter baumannii ATCC 19606; Escherichia coli ATCC 25922, 35218, CFT073, CI 14384, 16327, and the isogenic pair Ag100 (wild-type) and its efflux deficient mutant Ag100a (ΔacrAB); Klebsiella pneumoniae CI 1287, 224; Pseudomonas aeruginosa ATCC 27853, CI 1278, 8634; Salmonella enterica serovar Typhimurium ATCC 14028 (wild-type) and its isogenic efflux deficient mutant ΔacrAB. Bacteria were grown in Luria–Bertani broth (LB; 5 g/l NaCl, 5 g/l yeast extract, 10 g/l tryptone; pH = 7.0) at 37 °C with shaking. Over-night cultures were diluted 10-folds into fresh growth-medium and incubated at 37 °C with shaking until reaching mid-logarithmic phase. Then, bacterial concentrations were adjusted using O.D.600 nm measurements, and bacteria were subjected to the experimental procedures listed herein.
MIC was determined according to the broth microdilution method: antimicrobials were subjected to serial twofold dilutions in LB medium, and incubated with 5 × 10^5 CFU/ml of bacteria (final volume of 200 µl) for 18–24 h at 37 °C. Then, O.D.620 nm was measured (BioTek Instruments Synergy HT; Winooski, VT, USA), and the MIC was defined as the lowest antimicrobial concentration for which no increase in O.D.620 nm was evident, compared to the untreated control.
(In general: Dilution methods test growth across graded concentrations, often in twofold steps.)

The nature of data set [4]: Acute toxicity, maximal tolerated dose. The class given is in vivo, mice. The settings on record: S.C., up to 40 mg/kg, seven-day monitoring. How it is done:
(§1) The study is reported in accordance with ARRIVE guidelines.
The maximal tolerated dose (MTD) was determined after sub-cutaneous (S.C.) administration of lipopeptides solutions (0.2 ml). Mice (N = 3 per group) were monitored for up to 7 days and their physiological condition was scored on a scale of 1 to 6, in which a score of 1 indicates no apparent signs of distress, and a score of 6 signifies severe distress necessitating the mice immediate euthanasia.

Data set [5] deals with UPEC CFT073. Nature of the data set: Urinary-tract infection model. The data set is classed as in vivo, mice. The method, then:
as §1
Lipopeptides potential application in monotherapy and/or combination-therapies was explored with two infection models. In the peritonitis-sepsis model, mice (n = 10 per group) were first rendered neutropenic by two intraperitoneal (I.P.) injections of 0.3 ml containing 150 mg/kg and 100 mg/kg cyclophosphamide, administered 4 days and 1 day before the experiment, respectively. […] Mice survival was recorded for up to 7 days. In a variant assay, bacteria in PBS (1.4 × 10^6) were pre-treated with 10 µM lipopeptides for 15 min, similarly administered, and mice survival was recorded for up to 3 days. In the urinary-tract infection (UTI) model, mice (N = 5 mice per group) were anesthetized by a single I.P. injection (0.2 ml) containing a mixture of ketamine (100 mg/kg) and xylazine (5 mg/kg). Following application of an analgesic 2% lidocaine gel on their penises, mice were infected intra-urethraly using a 24-gauge catheter with 1.2 × 10^8 CFU/mouse (0.05 ml) and treated with the vehicle control (S.C., 1 h post-infection), 2 mg/kg rifampin (oral gavage, immediately before anesthesia), 7.5 mg/kg q.i.d. lipopeptides (S.C., starting 1 h post-infection), or both. Mice were sacrificed 24 h post-infection, their bladder and kidneys aseptically excised, suspended in 5 ml of sterile PBS, homogenized for 3 min using a bench-top homogenizer, serially tenfold diluted in saline, plated on LB agar, and incubated over-night at 37 °C for enumeration.

The source of these data is article PMC9586926, “An efflux-susceptible antibiotic-adjuvant with systemic efficacy against mouse infections” (Scientific Reports, 2022).

Where a SMILES comes first, the peptide text is derived from it. [ ]: non-standard residue; d: D form. The star is where a group is joined. 12Ado = NCCCCCCCCCCCC(=O)O; Decanoyl = CCCCCCCCCC(=O)*; Dab = NCC[C@H](N)C(=O)O Bounds are passed on as bounds.

With `CCCCCCCCCC(=O)N[C@@H](CCN)C(=O)N[C@@H](CCN)C(=O)NCCCCCCCCCCCC(=O)N[C@@H](CCN)C(N)=O` [C10BBc12B, decanoyl-bis.diaminobutyrate-aminododecanoyl-diaminobutyrate-amide] (Decanoyl-[Dab][Dab][12Ado][Dab]-NH2), the IC50 in data set [1] was more than 50 µM. In addition, the “effect on bacterial proliferation, individual agent” value in data set [2] is “unable to significantly alter bacterial proliferation”. For the same compound, the “MIC P. aeruginosa (n=3)” value in data set [3] is recorded as not below 50 µM. The signs of distress result in data set [4] is given as “no apparent physiological signs of distress”. In addition, the bladder bacterial load entry in data set [5] (24 h post-infection, 2 mg/kg rifampin, 7.5 mg/kg q.i.d. C10BBc12B or both, n = 5) is recorded as “no reduction in bacterial load”. For the same compound, the “efficacy of single dose regimen” value in data set [5] (single dose 7.5 or […] 1 h post infection, alone or in combination with rifampin) is on record as “essentially ineffective”.
